Source: article PMC12741935 (Alzheimer's & Dementia, 2025)

How the values were obtained:
[1] = system: dendritic spines, layer V of somatosensory cortex; experiment: Golgi staining, dendritic spine density in somatosensory cortex of 5xFAD mice; type: in vivo
Description: Drug concentrations were prepared immediately before dosing each day. […] The right hemisphere was subjected to Golgi staining as described previously[29] to assess dendrite morphology and dendritic spine density. Briefly, frozen mice brains were rapidly immersed in a modified Golgi-Cox staining solution (developed and provided by […] Jing and Francis Lee, Cornell University) for 9 days at room temperature in the dark. The brains were then incubated in 30% sucrose in dH2O at 4°C for 72 hours, with the solution refreshed after the first 12 hours. Next, 150 μm sections were prepared using a vibratome and mounted onto slides coated with 0.3% gelatin. After a brief drying period, slides were dipped three times in 40% sucrose and air dried for 72 hours in the dark. After dH2O washes, sections were developed using a staining solution, rinsed again, dehydrated through a graded ethanol series, cleared in xylene, and cover slipped with DPX mounting medium. Brain sections stained using the Golgi-Cox method were imaged with a Zeiss brightfield microscope equipped with the Neurolucida software (MBF Biosciences). The Neurolucida software was used to acquire neuron pictures, trace neuronal dendrites, and quantify dendritic spine density. […] After a neuron was selected, the 100 × oil immersion objective was used to perform real time dendritic tracing using Neurolucida's live mode. The soma was outlined using the “cell body” option followed by manual tracing of apical and basal dendrites using the respective “dendrite tracing” options. After the tracing was finished, spines were manually marked along the dendrites. A.DAT file was saved for each neuron post completion of dendrite and spine tracing and imported into Neurolucida Explorer, which is used to perform quantitative structural analysis and dendrite length and number of spines data for each neuron is exported. The spine density is calculated by dividing number of spines/dendrite length separately for apical and basal dendrites for each neuron.

[2] = system: 14 DIV hippocampal neurons; experiment: oTau-induced dendrite degeneration (MAP2 dendrite length, number) in cultured hippocampal neurons; type: cell-based, mouse; details: oTau 50 nM + inhibitor 24 h vs oTau alone, NVS-PAK1-1 10 nM, AZ 1 nM, G 5 nM
Description: For in vitro study, all animal procedures were conducted in accordance with the National Institutes of Health Guide for the Care and Use of Laboratory Animals using protocols approved by the institutional animal care and use committee at Stanford University. Timed pregnant C57BL/6 mice (Strain code: 027) were purchased from Charles River Laboratories and delivered on embryonic day 15 (E15), after which E16 embryos were used for primary hippocampal cultures. Primary embryonic mouse hippocampal neuron cultures were plated on poly‐D‐lysine‐coated (10 µg/mL) glass cover slips at 40,000 to 50,000 cells per well in 12‐well plates (Corning Life Sciences). Cells were seeded in plating medium DMEM/F12 supplemented with 10% fetal bovine serum and 1 × penicillin/streptomycin (PS) for 2 hours. Medium was then changed to B‐27 Plus Neuronal Culture System (Invitrogen) supplemented with PS, and 2 mM glutamine.
Immunofluorescence was performed as described previously.[24] Briefly, cultured hippocampal neurons were fixed in 4% formaldehyde for 20 minutes, permeabilized for 6 minutes in 80% ice‐cold methanol, and incubated with primary antibodies at 4°C overnight. Primary antibodies used were rabbit polyclonal MAP2 antibody for labeling dendrites (1:1000, #8707, Cell Signaling) and mouse monoclonal drebrin antibody for labeling dendritic spines (1:300; Cat#ADI‐NBA‐110, Enzo). Secondary antibodies consisted of donkey antirabbit or antimouse conjugated with either FITC or Cy3 (1:400; Jackson ImmunoResearch Laboratories, Inc.).
The cultured hippocampal neurons were imaged using an oil‐based 63x objective on a Leica Stellaris 5 confocal microscope. The cell nucleus was stained with DAPI and imaged at a wavelength of 405 nm (blue channel), the dendrites stained by MAP2 were imaged at 488 nm wavelength (green channel), and the drebrin‐stained spines were imaged at a wavelength of 561 nm (red channel). Z‐stack images of neurons were acquired at a 1024 × 1024 resolution, a zoom factor of 1.0, and a z‐step size of 0.5 µm. The number of steps for every z‐stack picture of a neuron were determined by the size of the neuron in the z‐plane, to ensure that the entirety of a neuron is captured in the picture. The areas to be imaged were selected systematically, starting from the top‐left region to proceeding to the bottom‐right region of a coverslip. For imaging, preference was given to field of views containing isolated neurons versus clustered neurons.
For quantification of drebrin‐positive spines in vitro, the images were analyzed using Imaris 9.3 software. Each image consisted of one major neuron and the “filaments” option in Imaris was applied to manually trace along the dendrites of every neuron, by placing starting and seed points at the beginning and along the length of the dendrites, respectively. The largest dendrite diameter (i.e., Starting Point) was set at 9.00 µm threshold while the thinnest dendrite diameter (i.e., Seed Point) was set at 1.00 µm threshold. After manually tracing the dendrites, the spines along the dendrites were assessed using the automatic “spine detection” function in Imaris. The thinnest spine diameter was set at 0.80 µm threshold while the maximum spine length was set at 5.00 µm. The spine density (number of spines/dendrite length) was then calculated for each neuron. All image acquisition and quantification were performed in a blind manner. For in vitro quantification of dendrite degeneration, Neurolucida (MBF Biosciences) in the manual mode was used to measure the total dendritic length, numbers of dendrites, and dendritic complexity for each neuron.

[3] = young male 5xFAD, 100 mg/kg BID PO 12 weeks

## CC(C)NC(=O)N1CC[C@H](NC2=Nc3cc(F)ccc3N(CC(F)F)c3ccc(Cl)cc32)C1 [NVS‐PAK1‐1, (S)‐3‐([2‐chloro‐5‐(2,2‐difluoroethyl)‐8‐fluoro‐5H‐dibenzo[b,e][1,4]diazepin‐11‐yl]amino)‐N‐isopropylpyrrolidine‐1‐carboxamide]
[1]; female 5xFAD, 100 mg/kg BID PO 12 weeks from 3 to 6 months of age, P < 0.01
  apical dendritic spine density, somatosensory cortex: prevented the loss
[1]; female 5xFAD, 100 mg/kg BID PO 12 weeks from 3 to 6 months of age, P < 0.05
  basal dendritic spine density, somatosensory cortex: prevented the loss
[1]; [3]
  apical spine density, somatosensory cortex: no significant difference
  basal spine density, somatosensory cortex: no significant difference
[2]
  dendrite number per neuron: significantly increased dendrite number per neuron
[2]; PAK1-C 10 nM
  total dendrite length per neuron: preserved dendrite length
